Data from US11767332B2, “Glucose-sensitive albumin-binding derivatives” (Novo Nordisk A/S, priority 2017, dated 2023).
Entries after “also recorded” stand apart in the source; their conditions may differ.

Legend:
[1] = Alizarin red (ARS) assay, glucose binding affinity; settings: 20 mM phosphate buffer pH 7.4, room temperature
Procedure: (§1) The alizarin-red binding assay is a colorimetric assay used to determine the inhibition affinity of boronate compounds to glucose. The assay is based on a colour shift of alizarin-red upon binding to boronate, which shift can be followed by change in absorbance in the 330-340 nm region.
(§2) After 5 minutes of centrifugation at 4000 rpm, the plate is placed in a multi-well spectrometer (SpectraMax, Molecular Devices) for absorption detection.
(§3) The analysis is carried out at room temperature with absorption readings at 330, 340 and 520 nm, respectively. Data obtained for absorption versus concentration of boronate is then fitted (Prism 7, GraphPad) with a sigmoidal function to obtain the Kd value of boronate and ARS.
(§4) Upon complete dissolution of the compound, 200 μM of Alizarin red (ARS) is added to the solution. The ARS-boronate solution is then aliquoted into a 96 multiwell plate (black, flat and clear bottom) 1:1 with appropriate carbohydrate. In particular, D-glucose and L-lactate solutions are prepared in a 20 mM phosphate buffer pH 7.4 at these concentrations respectively: 1000, 500, 250, 100, 50, 25, 10, 5, 2.5, 1, 0.25, 0.1 mM and 2500, 1000, 500, 100, 50, 10, 5, 1, 0.5, 0.1, 0.05, 0.01 mM. The plate with ARS-boronate mixed with carbohydrate is incubated 20 minutes at room temperature. After 5 minutes of centrifugation at 4000 rpm the plate is placed in a multiwell spectrometer (Spectra Max, Molecular Devices) for absorption detection.
(§5) The analysis is carried out at room temperature with absorption readings at 330, 340 and 520 nm, respectively.

[2] = Alizarin red (ARS) assay, lactate binding affinity; settings: 20 mM phosphate buffer pH 7.4, room temperature, N.D. = not detectable
Procedure: as §1, §2, §3, §4, §5

[3] = target: human serum albumin (HSA) (Homo sapiens (Human), UniProt P02768); assay: Fluorine (19F) NMR assay, glucose-sensitive albumin binding; settings: 0.1 mM compound, 1 mM HSA, 50 mM glucose, pH 7.4
human serum albumin (HSA), sequence (P02768 25-609): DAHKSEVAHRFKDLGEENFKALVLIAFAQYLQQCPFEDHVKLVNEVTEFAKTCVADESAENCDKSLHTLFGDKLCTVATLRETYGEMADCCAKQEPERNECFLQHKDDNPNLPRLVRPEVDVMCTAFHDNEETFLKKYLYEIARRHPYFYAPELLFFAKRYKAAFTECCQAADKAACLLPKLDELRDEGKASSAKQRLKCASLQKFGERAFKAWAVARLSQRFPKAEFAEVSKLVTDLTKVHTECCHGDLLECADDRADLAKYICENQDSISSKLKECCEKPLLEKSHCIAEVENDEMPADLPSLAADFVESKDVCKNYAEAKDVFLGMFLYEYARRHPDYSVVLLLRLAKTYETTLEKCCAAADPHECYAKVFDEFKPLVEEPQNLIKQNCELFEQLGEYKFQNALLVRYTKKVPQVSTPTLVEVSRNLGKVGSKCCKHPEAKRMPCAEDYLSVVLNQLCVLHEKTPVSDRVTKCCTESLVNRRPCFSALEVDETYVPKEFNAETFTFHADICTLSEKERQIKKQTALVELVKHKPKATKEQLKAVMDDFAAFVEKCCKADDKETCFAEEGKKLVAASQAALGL
Procedure: Diboron compound is dissolved at a 0.1 mM concentration in a 50 mM phosphate buffer pH 7.4, 10% deuterated water (D2O), and mixed with 0, 0.1, 0.2, 0.5, 1 and 2 mM human serum albumin (HSA). An additional sample with diboron compound in the presence of 1 mM HSA and 50 mM glucose is prepared.
The samples are then placed into 3 mm standard NMR tube (Bruker) and transferred for analysis to a 400 Mhz Bruker spectrometer equipped with a cryoprobe suitable for fluorine detection. The experiment is carried out with standard Bruker zgflqn pulse sequence at room temperature with enough scans to have a S/N ratio over 50 for the 0 mM HSA sample. The spectra are processed, visualized and compared by TopSpin program (Bruker).
The binding of diboron compound to HSA is qualitatively assessed by decrease of the fluorine signal of the diboron compound upon binding to HSA. Release of the diboron compound from HSA upon addition of glucose is assessed by reappearance/increase of fluorine signal in the spectra.

[4] = Glucose affinity by 13C NMR assay; settings: 1 mM glucose and 1 mM boronate, pH 7.4, 10 mM phosphate buffer, read-out: Binding Affinity [Kd Glucose (mM)] measured by 13C-NMR
From the text: The ^13C Glucose assay is an NMR based assay that takes advantage of the slow chemical shift exchange between the unbound glucose (A state) and the glucose bound to diboronates (B state). If
In a slow exchange regime NMR signals from both states (A and B) are observed and reflect the distinct chemical shifts of the two states as there is not significant interconversion in the timescale of the NMR experiments. Therefore the intensity of each peak directly reports on the population of that state.
The dissociation constant (Kd) could be defined as Kd=([A][B])/[AB], given At as the total concentration of specie A and Bt as total concentration of specie B, in the case in which At−Bt, the product at the equilibrium AB is given by the following equation:
[formula] so that knowing At, Bt and AB at the equilibrium is possible to determine Kd. […]
The samples are then investigated with a standard Carbon HSQC in a Bruker NMR instrument (RT, 32 scans). The intensities of the peaks of free glucose and glucose bound to boronates are determined by the use of TOPSPIN program (Bruker). Difference between intensity of free glucose and glucose bound peaks gives the concentration of product AB at the equilibrium so that Kd can be calculated using equation 1.

Row | Kd [1] [mM] | Kd [2] [mM] | Kd [4] [mM] | Structure (SMILES) | Glucose-dependent binding to albumin (19F-NMR signal) [3]
1 | 0.8 | 100 | – | O=C(O)CN(CCNC(=O)c1cc2c(c(C(F)F)c1)COB2O)C(=O)c1cc2c(c(C(F)F)c1)COB2O [Example 31, N-(4-(Difluoromethyl)-1-hydroxy-1,3-dihydrobenzo[c][1,2]oxaborole-6-carbonyl)-N-(2-(4-(difluoromethyl)-1-hydroxy-1,3-dihydrobenzo[c][1,2]oxaborole-6-carboxamido)ethyl)glycine] | –
2 | 0.8 | 41 | – | O=C(O)CN=S(=O)(c1cc(OC(F)(F)F)cc(B(O)O)c1)c1cc(OC(F)(F)F)cc(B(O)O)c1 [Example 44, 2-((Bis(3-borono-5-(trifluoromethoxy)phenyl)(oxo)-λ6-sulfanylidene)amino)acetic acid] | –
3 | 1.4 | 4.4 | – | CS(=O)(=O)c1cc(C(=O)NCCN(CC(=O)O)C(=O)c2cc3c(c(S(C)(=O)=O)c2)COB3O)cc2c1COB2O [Example 41, N-(1-Hydroxy-4-(methylsulfonyl)-1,3-dihydrobenzo[c][1,2]oxaborole-6-carbonyl)-N-(2-(1-hydroxy-4-(methylsulfonyl)-1,3-dihydrobenzo[c][1,2]oxaborole-6-carboxamido)ethyl)glycine] | –
4 | 0.2 | 10 | – | O=C(NC[C@H](NC(=O)c1cc2c(c(C(F)(F)F)c1)COB2O)C(=O)O)c1cc2c(c(C(F)(F)F)c1)COB2O [Example 26, (S)-2,3-Bis(1-hydroxy-4-(trifluoromethyl)-1,3-dihydrobenzo[c][1,2]oxaborole-6-carboxamido)propanoic acid] | bind to albumin in a glucose-dependent manner
5 | 1.8 | 17 | – | O=C(O)c1cc(B(O)O)c(F)c(S(=O)(=O)c2ccc(F)c(B(O)O)c2)c1 [Example 11, 3-Borono-5-((3-borono-4-fluorophenyl)sulfonyl)-4-fluorobenzoic acid] | –
6 | 1.3 | 11 | – | O=C(O)CN(CCNC(=O)c1cc2c(c(C(F)(F)F)c1)COB2O)C(=O)c1cc2c(c(C(F)(F)F)c1)COB2O [Example 25, N-(1-Hydroxy-4-(trifluoromethyl)-1,3-dihydrobenzo[c][1,2]oxaborole-6-carbonyl)-N-(2-(1-hydroxy-4-(trifluoromethyl)-1,3-dihydrobenzo[c][1,2]oxaborole-6-carboxamido)ethyl)glycine] | bind to albumin in a glucose-dependent manner

More lines, now with the values behind:

Row | Structure (SMILES) | Kd [1] [mM] | Kd [2] [mM] | Kd [4] [mM] | Glucose-dependent binding to albumin (19F-NMR signal) [3]
7 | NC(=O)CN(CCNC(=O)c1ccc(B(O)O)c(F)c1)C(=O)c1ccc(B(O)O)c(F)c1 [Example 3, N,N′-bis(4-borono-3-fluorobenzamido)-N-ethyl-glycine amide] | 2.7 | 16 | – | bind to albumin in a glucose-dependent manner; also recorded: glucose-sensitive albumin binding
8 | O=C(O)CN=S(=O)(c1cc(B(O)O)cc(C(F)(F)F)c1)c1cc(B(O)O)cc(C(F)(F)F)c1 [Example 30, 2-((Bis(3-borono-5-(trifluoromethyl)phenyl)(oxo)-λ6-sulfanylidene)amino)acetic acid] | – | – | 0.06 | –
9 | O=C(O)CNC(=O)c1cc(B(O)O)cc(C(=O)c2cc(F)cc(B(O)O)c2)c1 [Example 22, (3-Borono-5-(3-borono-5-fluorobenzoyl)benzoyl)glycine] | 2 | 20 | – | bind to albumin in a glucose-dependent manner
10 | O=C(O)CN(CCNC(=O)c1ccc2c(c1F)B(O)OC2)C(=O)c1ccc2c(c1F)B(O)OC2 [Example 5, N-(7-Fluoro-1-hydroxy-1,3-dihydrobenzo[c][1,2]oxaborole-6-carbonyl)-N-(2-(7-fluoro-1-hydroxy-1,3-dihydrobenzo[c][1,2]oxaborole-6-carboxamido)ethyl)glycine] | 0.8 | 40 | – | –
11 | O=C(O)CN=S(=O)(c1cc(Cl)cc(B(O)O)c1)c1cc(Cl)cc(B(O)O)c1 [Example 35, 2-((Bis(3-borono-5-chlorophenyl)(oxo)-λ6-sulfanylidene)amino)acetic acid] | 0.6 | 20 | – | –
12 | O=C(O)c1cc(CNC(=O)c2ccc(B(O)O)c(F)c2)cc(CNC(=O)c2ccc(B(O)O)c(F)c2)c1 [Example 2, 3,5-Bis((4-borono-3-fluorobenzamido)methyl)benzoic acid] | 3.4 | 5.4 | – | –
